Assay results from patent US20230126391A1, “ALPHA-METHYL-SUBSTITUTED DIAZABICYCLO[4.3.1] DECANE DERIVATIVES FOR TREATMENT OF PSYCHIATRIC DISORDERS” (priority 2020, published 2023).
pKi: −log10 of the molar value. Like-named read-outs stand apart in the source and are kept apart here.

Columns and labels:
FKBP52 = target: T1, FKBP52 (Homo sapiens, UniProt Q02790); assay: FP assay, binding to human FKBPs (Table 1); settings: fluorescence polarization assay
T1 sequence (Q02790 1-459): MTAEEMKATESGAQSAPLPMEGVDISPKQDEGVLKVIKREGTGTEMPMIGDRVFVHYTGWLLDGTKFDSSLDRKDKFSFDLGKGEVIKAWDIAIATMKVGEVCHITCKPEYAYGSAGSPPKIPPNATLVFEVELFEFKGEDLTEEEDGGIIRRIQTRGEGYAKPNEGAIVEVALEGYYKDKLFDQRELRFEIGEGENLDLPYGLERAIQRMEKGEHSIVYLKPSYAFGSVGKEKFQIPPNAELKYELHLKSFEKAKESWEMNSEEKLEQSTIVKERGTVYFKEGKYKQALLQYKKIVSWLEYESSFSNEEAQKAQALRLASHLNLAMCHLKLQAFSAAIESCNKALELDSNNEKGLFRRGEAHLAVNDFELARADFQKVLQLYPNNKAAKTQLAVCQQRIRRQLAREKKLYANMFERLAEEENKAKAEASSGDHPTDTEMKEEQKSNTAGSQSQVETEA

FKBP51 = target: T2, FKBP51 (Homo sapiens, UniProt Q13451); assay: FP assay, binding to human FKBPs (Table 1); settings: fluorescence polarization assay
T2 sequence (Q13451 1-457): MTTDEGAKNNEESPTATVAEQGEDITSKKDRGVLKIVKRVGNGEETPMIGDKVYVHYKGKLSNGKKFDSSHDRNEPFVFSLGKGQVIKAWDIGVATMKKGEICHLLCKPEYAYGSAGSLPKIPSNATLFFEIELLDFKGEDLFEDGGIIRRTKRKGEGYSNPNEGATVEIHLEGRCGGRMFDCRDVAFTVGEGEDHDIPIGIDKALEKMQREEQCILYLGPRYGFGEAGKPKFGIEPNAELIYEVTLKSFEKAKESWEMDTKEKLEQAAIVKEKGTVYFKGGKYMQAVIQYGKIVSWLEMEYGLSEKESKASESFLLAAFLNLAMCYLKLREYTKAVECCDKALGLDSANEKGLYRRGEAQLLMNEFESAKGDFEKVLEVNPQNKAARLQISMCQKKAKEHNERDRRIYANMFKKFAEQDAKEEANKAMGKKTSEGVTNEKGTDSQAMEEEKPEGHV

LpMip = LpMip (Legionella pneumophila subsp. pneumophila, UniProt Q5ZXE0); assay: biochemical; assay type: binding
FKBP12.6 = FKBP12.6 (Homo sapiens, UniProt P68106); assay: FP assay, binding to human FKBPs (Table 1); settings: fluorescence polarization assay
FKBP12 = FKBP12 (Homo sapiens, UniProt P62942); assay: FP assay, binding to human FKBPs (Table 1); settings: fluorescence polarization assay
Sequence of FKBP12 (P62942 whole entry): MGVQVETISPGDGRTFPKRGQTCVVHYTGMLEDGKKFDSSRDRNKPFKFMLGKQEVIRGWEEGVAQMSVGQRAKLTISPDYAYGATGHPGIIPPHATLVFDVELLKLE

Sequence of LpMip (Q5ZXE0 21-233 limits assumed): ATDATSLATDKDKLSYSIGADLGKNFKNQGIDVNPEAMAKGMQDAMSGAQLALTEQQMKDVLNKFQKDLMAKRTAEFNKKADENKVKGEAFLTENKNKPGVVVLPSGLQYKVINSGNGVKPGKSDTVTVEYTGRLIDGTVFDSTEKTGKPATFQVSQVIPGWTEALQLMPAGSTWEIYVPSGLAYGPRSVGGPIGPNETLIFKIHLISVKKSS
Sequence of FKBP12.6 (P68106 whole entry): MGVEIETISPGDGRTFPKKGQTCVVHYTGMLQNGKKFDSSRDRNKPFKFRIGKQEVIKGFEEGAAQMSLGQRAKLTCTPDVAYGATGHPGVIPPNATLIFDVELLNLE

| SMILES | pKi (FKBP52) | pKi (FKBP51) | pKi (LpMip) | pKi (FKBP12.6) | pKi (FKBP12) | pKi (LpMip; read-out: Ki LpMip) |
| --- | --- | --- | --- | --- | --- | --- |
| C=C[C@H]1CN([C@@H](C)c2ccccn2)C(=O)[C@@H]2CCC[C@H]1N2S(=O)(=O)c1cc(Cl)cc(Cl)c1 [6d, (1S,5S,6R)-10-((3,5-dichlorophenyl)sulfonyl)-3-((S)-1-(pyridin-2-yl)ethyl)-5-vinyl-3,10-diazabicyclo[4.3.1]decan-2-one] | 8.66 | 8.59 | 6.77 | 9.39 | 9.82 |  |
| C=C[C@H]1CN([C@H](C)CO)C(=O)[C@@H]2CCC[C@H]1N2S(=O)(=O)c1cc(Cl)cc(Cl)c1 [20c] | < 5.30 | < 5.30 |  |  | < 5.30 |  |
| C=C[C@H]1CN([C@H](C)C(=O)O)C(=O)[C@@H]2CCC[C@H]1N2S(=O)(=O)c1cc(Cl)cc(Cl)c1 [21c] | 6.53 | 6.91 |  |  | 7.32 |  |
| C=C[C@H]1CN([C@@H](C)C(=O)O)C(=O)[C@@H]2CCC[C@H]1N2S(=O)(=O)c1cc(Cl)cc(Cl)c1 [21b, (2S)-2-((1S,5S,6R)-10-((3,5-dichlorophenyl)sulfonyl)-2-oxo-5-vinyl-3,10-diazabicyclo[4.3.1]decan-3-yl)propanoic acid] | 7.10 | 7.66 | 6.55 |  | 7.89 |  |
| C=C[C@H]1CN(CCO)C(=O)[C@@H]2CCC[C@H]1N2S(=O)(=O)c1cc(Cl)cc(Cl)c1 [20a] | 6.41 | 6.39 |  |  | 7.70 |  |
| C=C[C@H]1CN([C@@H](C)COCc2ccccc2)C(=O)[C@@H]2CCC[C@H]1N2S(=O)(=O)c1ccc2ncsc2c1 [16a, (1S,5S,6R)-10-(benzo[d]thiazol-6-ylsulfonyl)-3-((S)-1-(benzyloxy)propan-2-yl)-5-vinyl-3,10-diazabicyclo[4.3.1]decan-2-one] | 6.50 | 6.58 |  |  | 7.55 |  |
| C=C[C@H]1CN(Cc2ccccn2)C(=O)[C@@H]2CCC[C@H]1N2S(=O)(=O)c1ccc2ncsc2c1 [7a] | 6.56 | 6.53 |  | 8.22 | 8.12 | 5.23 |
| COC[C@H]1CN([C@@H](C)c2ccccn2)C(=O)[C@@H]2CCC[C@H]1N2S(=O)(=O)c1cc(Cl)cc(Cl)c1 [24b, (1S,5S,6R)-10-((3,5-dichlorophenyl)sulfonyl)-5-(methoxymethyl)-3-((S)-1-(pyridin-2-yl)ethyl)-3,10-diazabicyclo[4.3.1]decan-2-one] | 9.46 | 9.08 | 7.44 | 9.39 | 10.40 |  |
| C=C[C@H]1CN([C@@H](C)c2ccccn2)C(=O)[C@@H]2CCC[C@H]1N2S(=O)(=O)c1ccc2ncsc2c1 [7d, (1S,5S,6R)-10-(benzo[d]thiazol-6-ylsulfonyl)-3-((S)-1-(pyridin-2-yl)ethyl)-5-vinyl-3,10-diazabicyclo[4.3.1]decan-2-one] | 7.54 | 7.48 | 6.44 | 9.05 | 8.66 |  |
| C=C[C@H]1CN([C@@H](C)COCc2ccccc2)C(=O)[C@@H]2CCC[C@H]1N2S(=O)(=O)c1cc(Cl)cc(Cl)c1 [15a, (1S,5S,6R)-3-((S)-1-(benzyloxy)propan-2-yl)-10-((3,5-dichlorophenyl)sulfonyl)-5-vinyl-3,10-diazabicyclo[4.3.1]decan-2-one] | 5.99 | 5.97 |  |  | 7.24 |  |
| C[C@@H](c1ccccn1)N1C[C@H](CO)[C@H]2CCC[C@@H](C1=O)N2S(=O)(=O)c1cc(Cl)cc(Cl)c1 [23b, (1S,5S,6R)-10-((3,5-dichlorophenyl)sulfonyl)-5-(hydroxymethyl)-3-((S)-1-(pyridin-2-yl)ethyl)-3,10-diazabicyclo[4.3.1]decan-2-one] | 8.92 | 8.72 | 7.44 | 9.51 | 10.22 |  |
| C=C[C@H]1CN([C@H](C)COCc2ccccc2)C(=O)[C@@H]2CCC[C@H]1N2S(=O)(=O)c1ccc2ncsc2c1 [16b] | < 5.30 | < 5.30 |  |  | < 5.30 |  |
| C=C[C@H]1CN([C@H](C)c2ccccn2)C(=O)[C@@H]2CCC[C@H]1N2S(=O)(=O)c1cc(Cl)cc(Cl)c1 [6e] | < 6.00 | < 6.00 |  | 6.09 | 6.89 |  |
| COC[C@H]1CN(Cc2ccccn2)C(=O)[C@@H]2CCC[C@H]1N2S(=O)(=O)c1cc(Cl)cc(Cl)c1 [24a] | 7.96 | 7.92 |  | 8.47 | 9.19 | 6.30 |
| C=C[C@H]1CN([C@H](C)COC)C(=O)[C@@H]2CCC[C@H]1N2S(=O)(=O)c1cc(Cl)cc(Cl)c1 [22c] | < 5.30 | < 5.30 |  |  | < 5.30 |  |
| C=C[C@H]1CN([C@H](C)COCc2ccccc2)C(=O)[C@@H]2CCC[C@H]1N2S(=O)(=O)c1cc(Cl)cc(Cl)c1 [15b] | < 5.30 | < 5.30 |  |  | < 5.30 |  |
| C=C[C@H]1CN([C@@H](C)CO)C(=O)[C@@H]2CCC[C@H]1N2S(=O)(=O)c1cc(Cl)cc(Cl)c1 [20b, (1S,5S,6R)-10-((3,5-dichlorophenyl)sulfonyl)-3-((S)-1-hydroxypropan-2-yl)-5-vinyl-3,10-diazabicyclo[4.3.1]decan-2-one] | 6.94 | 6.97 |  |  | 8.46 |  |
| CC[C@H]1CN([C@@H](C)c2ccccn2)C(=O)[C@@H]2CCC[C@H]1N2S(=O)(=O)c1ccc2ncsc2c1 [26b, (1S,5S,6R)-10-(benzo[d]thiazol-6-ylsulfonyl)-5-ethyl-3-((S)-1-(pyridin-2-yl)ethyl)-3,10-diazabicyclo[4.3.1]decan-2-one] | 7.66 | 7.57 | 6.55 | 9.22 | 8.72 |  |
| O=C1[C@@H]2CCC[C@H]([C@@H](CO)CN1Cc1ccccn1)N2S(=O)(=O)c1ccc2ncsc2c1 [25a] | 6.72 | 6.55 |  | 8.42 | 8.26 | 5.40 |
| C=C[C@H]1CN(CCOC)C(=O)[C@@H]2CCC[C@H]1N2S(=O)(=O)c1cc(Cl)cc(Cl)c1 [22a] | 6.42 | 6.28 |  |  | 7.23 |  |
| C=C[C@H]1CN(Cc2cn(-c3ccc(OC)cc3)nn2)C(=O)[C@@H]2CCC[C@H]1N2S(=O)(=O)c1cc(Cl)cc(Cl)c1 [19a] | 6.44 |  |  | 7.80 | 7.82 |  |
| C[C@@H](c1ccccn1)N1C[C@H](CO)[C@H]2CCC[C@@H](C1=O)N2S(=O)(=O)c1ccc2ncsc2c1 [25b, (1S,5S,6R)-10-(benzo[d]thiazol-6-ylsulfonyl)-5-(hydroxymethyl)-3-((S)-1-(pyridin-2-yl)ethyl)-3,10-diazabicyclo[4.3.1]decan-2-one] |  |  | 6.63 | 9.15 | 8.82 |  |
| C=C[C@H]1CN([C@@H](C)CO)C(=O)[C@@H]2CCC[C@H]1N2S(=O)(=O)c1ccc2ncsc2c1 [17a, (1S,5S,6R)-10-(benzo[d]thiazol-6-ylsulfonyl)-3-((S)-1-hydroxypropan-2-yl)-5-vinyl-3,10-diazabicyclo[4.3.1]decan-2-one] | 6.99 | 6.96 |  |  | 7.68 |  |
| C=C[C@H]1CN([C@H](C)c2cn(-c3ccc(OC)cc3)nn2)C(=O)[C@@H]2CCC[C@H]1N2S(=O)(=O)c1cc(Cl)cc(Cl)c1 [19c] | 5.99 |  |  | 6.41 | 6.63 |  |
| C=C[C@H]1CN(CC(=O)O)C(=O)[C@@H]2CCC[C@H]1N2S(=O)(=O)c1cc(Cl)cc(Cl)c1 [21a] | 6.49 | 6.76 |  |  | 7.48 | 5.29 |
| C=C[C@H]1CN([C@@H](C)c2cn(-c3ccc(OC)cc3)nn2)C(=O)[C@@H]2CCC[C@H]1N2S(=O)(=O)c1cc(Cl)cc(Cl)c1 [19b, (1S,5S,6R)-10-((3,5-dichlorophenyl)sulfonyl)-3-((S)-1-(1-(4-methoxyphenyl)-1H-1,2,3-triazol-4-yl)ethyl)-5-vinyl-3,10-diazabicyclo[4.3.1]decan-2-one] | 7.04 |  |  | 7.80 | 8.37 |  |
| C=C[C@H]1CN([C@H](C)CO)C(=O)[C@@H]2CCC[C@H]1N2S(=O)(=O)c1ccc2ncsc2c1 [17b] | < 5.30 | < 5.30 |  |  | < 5.30 |  |
| C=C[C@H]1CN([C@H](C)c2ccccn2)C(=O)[C@@H]2CCC[C@H]1N2S(=O)(=O)c1ccc2ncsc2c1 [7e] | 5.46 | 5.34 |  | 6.80 | 6.62 |  |
| C=C[C@H]1CN([C@@H](C)COC)C(=O)[C@@H]2CCC[C@H]1N2S(=O)(=O)c1cc(Cl)cc(Cl)c1 [22b, (1S,5S,6R)-10-((3,5-dichlorophenyl)sulfonyl)-3-((S)-1-methoxypropan-2-yl)-5-vinyl-3,10-diazabicyclo[4.3.1]decan-2-one] | 6.69 | 6.69 |  |  | 7.85 |  |
